Results as given in a melting point compilation (Tetko et al.; mined from patent text by program, amines drawn as free bases though some values may be those of a salt).

Structure (SMILES) | melting point [°C]
NC(=O)Cn1cc2c(c1)-c1ccc(Cl)cc1C(c1ccccc1)=NC2 | 236 to 237
C=CCN(CC=C)c1ccc2[nH]c3cnc(-c4nc(CC)no4)nc3c2c1 | 175 to 184
CCC1(CC)c2cc(-c3nc4ccccc4s3)ccc2-c2ccc(N(c3ccc(Oc4ccc([N+](=O)[O-])cc4)cc3)c3ccc(Oc4ccc([N+](=O)[O-])cc4)cc3)cc21 | 223 to 225
CCCCCCCCC=CCCCCCCCCn1c(=O)[nH][nH]c1=O | 120
COc1ccc2c(c1[N+](=O)[O-])CN(S(C)(=O)=O)CC(=O)N2 | 222 to 226
CC(=O)NC(COc1ccccc1)C(=O)O (stereo not given) | 90 to 92
CC(C)(C)OC(=O)C(=[N+]=[N-])C(=O)COCc1ccccc1 | 68
COC(=O)Cc1ccc(OCCNC(=O)C2Cc3ccccc3N2S(=O)(=O)c2ccc(-c3cccc(C(F)(F)F)c3)cc2)cc1C (stereo not given) | 53 to 57
NC(=O)c1c(Br)cc(Br)c(CCC(=O)O)c1Br | 197
CCc1[nH]c(=S)[nH]c1-c1cc(C(C)(C)C)c(O)c(C(C)(C)C)c1 | 279 to 281
CN(O)C(=O)NCCc1ccc2c(c1)OCCO2 | 94 to 95
Cc1c(C)c2c(c(C)c1NC(=O)NC(C)(C)C)C(O)(c1ccc3ccccc3c1)C(C)(C)O2 (stereo not given) | 212 to 214
CCCc1c(OCCSc2nc3ccc(C(=O)O)cc3[nH]2)ccc(C(C)=O)c1O | 108 to 110
CCCC1=Cc2c(c(C)c(C)c3oc(C(=O)O)cc23)C1=O | 242
COC(=O)C1CCC(C(=O)Nc2sc3c(c2C(=O)NCc2ccc4c(c2)OCO4)CCCC3)CC1 (stereo not given) | 173
CC12CCC3c4ccc(C(=O)O)cc4CCC3C1CCC2C(=O)c1ccc(S(C)(=O)=O)cc1 (stereo not given) | 283 to 286
CSCC(=O)[C@H](CC1CCCCC1)NC(=O)[C@H](CC(C)C)NC(=O)OCc1ccccc1 | 83 to 84
O=C1c2cc(-c3ccccc3)ccc2-c2c1c1ccc([N+](=O)[O-])cc1c(=O)n2CCCNS(=O)(=O)c1ccccc1 | 246 to 247
CC(Cc1ccc(S(=O)(=O)NC(=O)NC2CCCCC2)cc1)NC(=O)N1Cc2ccccc2C1=O (stereo not given) | 197 to 198
FC(F)(F)Sc1ccc(C(F)(F)F)cc1 | 30 to 31
CCn1nc(-c2cnc3[nH]cc(C(=O)N[C@H](C)C(=O)N4CC(C#N)C4)c3n2)c2ccc(Cl)cc21 | 248 to 255

Structure (SMILES) | melting point [°C]
COc1nc(-c2ccc(Cl)cc2)nc(Cl)c1Cl | 157 to 159
Nc1ccc(NC2CCCCCC2)c([N+](=O)[O-])c1 | 153
N#Cc1cnn2c1N(C(=O)CN1CCN(C(=O)Nc3ccc(Cl)c(Cl)c3)CC1)CC=C2c1cccc(C(F)(F)F)c1 | 204 to 206
Cc1cccc(-c2nc(C(C)C)[nH]c2-c2cccc(-c3ccc(C(=O)N4CCS(=O)CC4)cc3)c2)n1 | 136 to 140
O=C(O)C1=Cc2cc(Cl)c(Cl)cc2SC1C(F)(F)F (stereo not given) | 262 to 264
CC1CCN(C(=O)Oc2ccc(Oc3ccc(Cl)cc3)cc2)CC1 | 72 to 75
CC12CCC(O)CC1=CC(O)C1C2CCC2(C)C(O)C(O)CC12 (stereo not given) | 217 to 221
CC(=O)c1cc(Cl)c(N)c2c1OCCO2 | 133 to 136
O=C(O)COCCC1CCN(c2cnc(-c3ccccc3)c(-c3ccccc3)n2)CC1 | 173 to 174
CNC(=O)Nc1snc(OC(C)C)c1C#N | 238
COC(C)n1cc(C2=C(c3cn(C(C)OC)c4ccccc34)C(=O)NC2=O)c2ccccc21 (stereo not given) | 222 to 224
NC(=O)c1cc(OCCNCC(O)c2ccc(OCc3ccccc3)cc2)ccc1O (stereo not given) | 160 to 162
Cc1ccc(-c2cccc(-c3nc(C(C)C)[nH]c3-c3cccc(C)n3)c2)cc1 | 76 to 79
COc1cc(N)ccc1N1CCN(CCCNc2c(C)c(=O)n(C)c(=O)n2C)CC1 | 146 to 148
CC(=Cc1ccc(C(=O)O)cc1)[N+](=O)[O-] | 212 to 214
COC(=O)NC(C)(C)c1ccc(C)cc1 | 42 to 43
CS(=O)(=O)N(Cl)C(=O)c1cc(Oc2ccc(C(F)(F)F)cc2Cl)ccc1[N+](=O)[O-] | 160 to 161
O=C(CC(CNS(=O)(=O)c1ccc(Oc2ccccc2)cc1)c1ccc(Cl)cc1)Nc1ccc(C(=O)O)cc1 (stereo not given) | 119 to 121
O=C(O)c1nc2cc(-n3cccc3)c([N+](=O)[O-])cc2[nH]c1=O | > 300
Oc1ncnc(C(F)F)c1Cl | 148 to 150
O=C(O)CCC(=O)N1CCN(c2ccncc2)CC1 | 261 to 263

Next, values leading:

melting point [°C] | Structure (SMILES)
41 to 43 | CCOc1ccc([N+](=O)[O-])c(C)c1
219 to 221 | N#Cc1cnc2sc(-c3ccccc3)cc2c1NCc1ccc2[nH]ccc2c1
179 to 180 | O=Cc1c2n(c3ccc(Cl)cc13)CCC2
210 to 212 | CCOC(=O)c1cn(NCC=O)c2nc(C)ccc2c1=O
255 to 256 | CSc1ccc(-c2coc3ccc(-c4nnc(N)o4)cc23)cc1
145 to 148 | O=c1[nH]c(NCCSCc2cccs2)ncc1Cc1cccnc1
135 | COc1cc(-c2ccn(C)n2)cc2oc(=O)c(C)c(C)c12
142 to 144 | N#CC=C1CCN(c2ccc(N3C[C@H](CNC(=O)C(Cl)(Cl)Cl)OC3=O)cc2F)CC1
168 to 170 | O=Cc1cnn2c(-c3cccc(C(F)(F)F)c3)ccnc12
206 to 207 | CCn1nnc(NC(=O)C2c3ccccc3Cc3ccccc32)n1
117 to 120 | N#CC1OC(=O)c2c(F)cccc21 (stereo not given)
161 to 164 | C[C@@H]1CN(c2ncc3ncnc(Nc4ccc(F)c(Cl)c4)c3n2)CC[C@@H]1N (relative stereo)
95 to 96.5 | COC(=O)c1cccnc1C(=O)c1ccc(F)cc1
135 to 136 | N#CC(Cc1c[nH]cn1)(c1ccccc1)c1ccc(Cl)cc1 (stereo not given)
85 to 86 | N#CC1=C(c2ccccc2)Oc2ccccc2O1
258 to 259 | Cc1[nH]c(C#N)c(C)c1-c1ccnc(Nc2cccc([N+](=O)[O-])c2)n1
190 to 191 | O=C1N=CC(OCC2CCC2)(C(F)(F)F)c2cc(F)ccc2N1 (stereo not given)
125 to 127 | Cc1ccc(C2COc3c(C)c(C)c(N)c(C)c32)nc1 (stereo not given)
206 | CC(=O)Nc1ccccc1C(=O)Nc1cccc2cc(Br)cnc12
69 to 72.2 | CSc1ncc2cc(Cc3ccccc3)oc2n1
131 to 133 | OC(c1cccnc1)c1c[nH]c2ccc(F)cc12 (stereo not given)
157 to 158 | Cc1ccn(-c2ccc(S(C)(=O)=O)cc2)c1-c1ccc(F)cc1
228 to 230 | Nc1ccc(N2C(=O)c3ccc(Cl)cc3C2=O)c(CO)c1
272 to 273 | Nc1cccc2c1C(=O)c1c(N)cccc1C2=O
134 to 136 | Cc1nc(N2CCc3ccccc3CC2)c(C#N)c(=O)n1N(C)C
157 to 159 | COC(=O)C(Oc1cc(OCc2ccc3ncoc3c2)ccc1C#N)c1ccccc1Cl (racemic)
152 to 154 | Cn1cc(-c2cccc(Br)c2)c(=O)c(-c2ccc(Cl)c(Cl)c2)c1
158 | CCN(c1ccc(C)cc1)c1nc(=O)c2cccnc2s1
